Laboratory results taken from ChEMBL document CHEMBL1201862, “PubChem BioAssay data set” (2004).
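Protocol summary: plate cells (96-well), add compound at 5 concentrations, incubate 48 h, interpolate endpoints linearly. At the GI50, growth is halved.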 Calls of active or inactive are those of the source. No stated cut-off is given here; in the data, active = GI50 up to about 1.1 µM and inactive = higher.

Tests used:
Assay in all cases: NCI tumour cell line growth inhibition, 48 h
CCRF-CEM = test system: CCRF-CEM
SF-539 = test system: SF-539
MDA-N = test system: MDA-N
M14 = test system: M14
A498 = test system: A498
SK-MEL-5 = test system: SK-MEL-5
OVCAR-4 = test system: OVCAR-4
BT-549 = test system: BT-549
SN12C = test system: SN12C
NCI-H460 = test system: NCI-H460
NCI-H226 = test system: NCI-H226
MDA-MB-435 = test system: MDA-MB-435
HOP-62 = test system: HOP-62
A549 = test system: A549
SK-MEL-2 = test system: SK-MEL-2
TK-10 = test system: TK-10
HCT-116 = test system: HCT-116
IGROV-1 = test system: IGROV-1
NCI-H23 = test system: NCI-H23

SMILES | GI50 (CCRF-CEM) | GI50 (SF-539) | GI50 (MDA-N) | GI50 (M14) | GI50 (A498) | GI50 (SK-MEL-5) | GI50 (OVCAR-4) | GI50 (BT-549) | GI50 (SN12C) | GI50 (NCI-H460) | GI50 (NCI-H226) | GI50 (MDA-MB-435) | GI50 (HOP-62) | GI50 (A549) | GI50 (SK-MEL-2) | GI50 (TK-10) | GI50 (HCT-116) | GI50 (IGROV-1) | GI50 (NCI-H23)
COc1oc(C(=O)NC2CCCCC2)c(-c2ccc(Cl)cc2)c1S(=O)(=O)c1ccccc1 | 2.2 µM (inactive) | 6.58 µM (inactive) | 64 µM (inactive) | 26.9 µM (inactive) | 2.15 µM (inactive) | 28.1 µM (inactive) | 1.7 µM (inactive) | 5.55 µM (inactive) | 20.1 µM (inactive) | 10.5 µM (inactive) | 52.2 µM (inactive) | 9.86 µM (inactive) | 6.27 µM (inactive) | 23.7 µM (inactive) | 13.4 µM (inactive) | > 53.1 µM (inactive) | 33.3 µM (inactive) | 1.82 µM (inactive) | 
Cn1c(N=[N+]=[N-])cc(=O)n(C)c1=O | > 100 µM (inactive) | > 100 µM (inactive) | > 100 µM (inactive) | > 100 µM (inactive) | > 100 µM (inactive) | > 100 µM (inactive) | > 100 µM (inactive) | > 100 µM (inactive) | > 100 µM (inactive) | > 100 µM (inactive) | > 100 µM (inactive) | > 100 µM (inactive) | > 100 µM (inactive) | > 100 µM (inactive) | > 100 µM (inactive) | > 100 µM (inactive) | > 100 µM (inactive) | > 100 µM (inactive) | > 100 µM (inactive)
COc1cccc([C@H]2CC(=O)c3cc4c(cc3N2)OCO4)c1 | 0.49 µM (active) | 0.274 µM (active) | 0.0789 µM (active) | 0.237 µM (active) | 0.75 µM (active) | 0.216 µM (active) | 20.6 µM (inactive) | 8.59 µM (inactive) | 0.394 µM (active) | 0.411 µM (active) | 0.263 µM (active) | 0.0743 µM (active) | 0.568 µM (active) | 0.296 µM (active) | 0.578 µM (active) | 0.979 µM (active) | 0.352 µM (active) | 0.622 µM (active) | 0.451 µM (active)
CNc1cc(OCc2ccccc2)c(OC)cc1C(=O)N1CCC[C@H]1CO | 81.5 µM (inactive) | > 100 µM (inactive) | > 100 µM (inactive) | > 100 µM (inactive) | > 100 µM (inactive) | > 100 µM (inactive) | 70.1 µM (inactive) | > 100 µM (inactive) | > 100 µM (inactive) |  | > 100 µM (inactive) | > 100 µM (inactive) | > 100 µM (inactive) | > 100 µM (inactive) | > 100 µM (inactive) | > 100 µM (inactive) | > 100 µM (inactive) | > 100 µM (inactive) | > 100 µM (inactive)
N#Cc1c(-c2ccccc2)[nH]c2ccccc2c1=O | > 100 µM (inactive) | > 100 µM (inactive) | 33.4 µM (inactive) | > 100 µM (inactive) | > 100 µM (inactive) | 66.7 µM (inactive) | > 100 µM (inactive) | 25.8 µM (inactive) | 95.7 µM (inactive) | > 100 µM (inactive) | 41.6 µM (inactive) | 17.4 µM (inactive) | 27.7 µM (inactive) | 9.59 µM (inactive) | 39.6 µM (inactive) | 32.8 µM (inactive) | 87.5 µM (inactive) | 23.9 µM (inactive) | 
Cc1nnc([C@@]2(C)CC[C@H]3[C@@H](CC=C4C[C@@H](O)CC[C@@]43C)[C@@H]2CC#N)o1 | > 100 µM (inactive) | > 100 µM (inactive) | > 100 µM (inactive) | > 100 µM (inactive) | > 100 µM (inactive) | > 100 µM (inactive) | > 100 µM (inactive) | > 100 µM (inactive) | > 100 µM (inactive) |  | > 100 µM (inactive) | > 100 µM (inactive) | > 100 µM (inactive) | > 100 µM (inactive) | > 100 µM (inactive) | > 100 µM (inactive) | > 100 µM (inactive) |  | > 100 µM (inactive)
